Read-outs that look alike come from different tables or passages of the source.
Experiments:
Format in all cases: biochemical
[1] = target: T1, Human recombinant PDE3A (hPDE3A) (Homo sapiens, UniProt Q14432); test: In vitro assay PDE3A (SPA, 3H-cAMP hydrolysis); settings: for IC50: hPDE3B pIC50; for Emax: read-out: hPDE3B Emax, read-out: Emax;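 as to Emax: the method names PDE3A and the table heading PDE3B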
T1 construct: purchased Scottish Biomedical; host or cells: Sf9 insect cells
How it was run: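 Human PDE3A, cloned from brain, as partially purified Sf9 lysate. Substrate 0.4 μM cAMP plus [3H]-cAMP (2.4 μCi/ml final) in 50 mM Tris pH 7.8, 8.3 mM MgCl2, 1.7 mM EGTA, 60 min at room temperature, 1% DMSO final. Hydrolysis read by SPA scintillation counting against no-enzyme blanks and DMSO controls.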

[2] = target: T2, Human recombinant PDE2A (hPDE2A) (Homo sapiens, UniProt O00408); test: In vitro assay PDE2A (SPA, 3H-cGMP hydrolysis); settings: for Emax: read-out: hPDE2A Emax
T2 construct: His tag (inferred from metal chelate purification); made in house; host or cells: Sf9 insect cells (baculovirus)
T2 sequence (O00408 whole entry): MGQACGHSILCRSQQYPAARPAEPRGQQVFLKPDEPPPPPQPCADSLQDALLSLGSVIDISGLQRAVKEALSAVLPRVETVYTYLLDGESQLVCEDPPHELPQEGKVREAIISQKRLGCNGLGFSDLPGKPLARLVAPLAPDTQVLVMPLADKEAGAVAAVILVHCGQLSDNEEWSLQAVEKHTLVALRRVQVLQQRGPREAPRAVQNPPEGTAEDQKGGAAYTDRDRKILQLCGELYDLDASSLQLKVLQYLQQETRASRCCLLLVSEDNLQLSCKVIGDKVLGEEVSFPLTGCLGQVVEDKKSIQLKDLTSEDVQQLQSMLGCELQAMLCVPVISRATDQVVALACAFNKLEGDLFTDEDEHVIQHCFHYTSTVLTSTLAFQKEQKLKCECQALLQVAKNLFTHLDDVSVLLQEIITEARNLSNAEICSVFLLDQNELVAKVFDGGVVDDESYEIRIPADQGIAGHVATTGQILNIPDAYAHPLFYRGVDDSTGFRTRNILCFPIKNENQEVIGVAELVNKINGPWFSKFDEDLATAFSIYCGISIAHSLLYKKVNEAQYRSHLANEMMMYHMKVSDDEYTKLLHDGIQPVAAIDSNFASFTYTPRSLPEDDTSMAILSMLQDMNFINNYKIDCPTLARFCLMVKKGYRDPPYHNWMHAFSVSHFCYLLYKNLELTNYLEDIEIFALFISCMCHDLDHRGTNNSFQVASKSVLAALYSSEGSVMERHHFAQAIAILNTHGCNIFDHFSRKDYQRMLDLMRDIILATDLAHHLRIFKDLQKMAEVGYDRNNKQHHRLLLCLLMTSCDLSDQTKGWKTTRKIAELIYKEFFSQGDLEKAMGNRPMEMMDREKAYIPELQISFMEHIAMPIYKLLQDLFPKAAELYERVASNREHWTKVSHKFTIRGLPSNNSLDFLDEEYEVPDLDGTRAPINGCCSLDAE

[3] = target: T3, Human recombinant PDE10A (hPDE10A) (Homo sapiens, UniProt Q9Y233); test: In vitro assay PDE10A, human clone (SPA, 3H-cAMP hydrolysis)
T3 construct: His tag (inferred from metal chelate purification); made in house; host or cells: Sf9 insect cells (baculovirus)
T3 sequence (Q9Y233 267-1055): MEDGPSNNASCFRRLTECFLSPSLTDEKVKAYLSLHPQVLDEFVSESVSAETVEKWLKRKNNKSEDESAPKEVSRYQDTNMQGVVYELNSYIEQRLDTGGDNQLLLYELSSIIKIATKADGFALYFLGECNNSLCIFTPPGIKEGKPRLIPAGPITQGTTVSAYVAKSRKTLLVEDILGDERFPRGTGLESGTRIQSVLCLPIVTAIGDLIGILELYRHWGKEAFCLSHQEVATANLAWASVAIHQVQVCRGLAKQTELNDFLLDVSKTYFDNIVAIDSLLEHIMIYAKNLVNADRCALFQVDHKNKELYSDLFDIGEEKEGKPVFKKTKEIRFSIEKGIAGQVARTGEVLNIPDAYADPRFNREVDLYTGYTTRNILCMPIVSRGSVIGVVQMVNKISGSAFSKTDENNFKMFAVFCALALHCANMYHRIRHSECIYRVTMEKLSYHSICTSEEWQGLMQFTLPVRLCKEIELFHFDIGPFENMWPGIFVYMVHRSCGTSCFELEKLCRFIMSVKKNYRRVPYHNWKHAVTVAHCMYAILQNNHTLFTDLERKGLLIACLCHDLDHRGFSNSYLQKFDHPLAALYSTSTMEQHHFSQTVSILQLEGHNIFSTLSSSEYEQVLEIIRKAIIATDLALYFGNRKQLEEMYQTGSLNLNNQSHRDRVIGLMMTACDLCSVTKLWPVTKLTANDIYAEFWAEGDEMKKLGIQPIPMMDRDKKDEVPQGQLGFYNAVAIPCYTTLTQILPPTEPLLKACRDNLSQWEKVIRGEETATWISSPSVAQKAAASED
How it was run: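 Human recombinant PDE10A was expressed in Sf9 cells via baculovirus and incubated with compound in 50 mM Tris pH 7.8, 8.3 mM MgCl2, 1.7 mM EGTA. Substrate was 60 nM cAMP plus 0.008 μCi 3H-cAMP for 60 min at room temperature, read by SPA scintillation counting. Controls used 1% DMSO, and blanks omitted enzyme.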

[4] = human recombinant PDE2A, 10 μM cGMP substrate, read-out: hPDE2A pIC50 (converted)
[5] = read-out: hPDE2A pIC50 (converted)
[6] = human clone (h), default, read-out: hPDE10A2 Emax
[7] = human clone (h), default, read-out: hPDE10A2 pIC50 (converted)
[8] = human clone by default (no (r) mark), read-out: hPDE10A2 or rPDE10A2 Emax
[9] = human clone by default (no (r) mark), read-out: hPDE10A2 or rPDE10A2 pIC50 (converted)

T1 sequence (Q14432 whole entry): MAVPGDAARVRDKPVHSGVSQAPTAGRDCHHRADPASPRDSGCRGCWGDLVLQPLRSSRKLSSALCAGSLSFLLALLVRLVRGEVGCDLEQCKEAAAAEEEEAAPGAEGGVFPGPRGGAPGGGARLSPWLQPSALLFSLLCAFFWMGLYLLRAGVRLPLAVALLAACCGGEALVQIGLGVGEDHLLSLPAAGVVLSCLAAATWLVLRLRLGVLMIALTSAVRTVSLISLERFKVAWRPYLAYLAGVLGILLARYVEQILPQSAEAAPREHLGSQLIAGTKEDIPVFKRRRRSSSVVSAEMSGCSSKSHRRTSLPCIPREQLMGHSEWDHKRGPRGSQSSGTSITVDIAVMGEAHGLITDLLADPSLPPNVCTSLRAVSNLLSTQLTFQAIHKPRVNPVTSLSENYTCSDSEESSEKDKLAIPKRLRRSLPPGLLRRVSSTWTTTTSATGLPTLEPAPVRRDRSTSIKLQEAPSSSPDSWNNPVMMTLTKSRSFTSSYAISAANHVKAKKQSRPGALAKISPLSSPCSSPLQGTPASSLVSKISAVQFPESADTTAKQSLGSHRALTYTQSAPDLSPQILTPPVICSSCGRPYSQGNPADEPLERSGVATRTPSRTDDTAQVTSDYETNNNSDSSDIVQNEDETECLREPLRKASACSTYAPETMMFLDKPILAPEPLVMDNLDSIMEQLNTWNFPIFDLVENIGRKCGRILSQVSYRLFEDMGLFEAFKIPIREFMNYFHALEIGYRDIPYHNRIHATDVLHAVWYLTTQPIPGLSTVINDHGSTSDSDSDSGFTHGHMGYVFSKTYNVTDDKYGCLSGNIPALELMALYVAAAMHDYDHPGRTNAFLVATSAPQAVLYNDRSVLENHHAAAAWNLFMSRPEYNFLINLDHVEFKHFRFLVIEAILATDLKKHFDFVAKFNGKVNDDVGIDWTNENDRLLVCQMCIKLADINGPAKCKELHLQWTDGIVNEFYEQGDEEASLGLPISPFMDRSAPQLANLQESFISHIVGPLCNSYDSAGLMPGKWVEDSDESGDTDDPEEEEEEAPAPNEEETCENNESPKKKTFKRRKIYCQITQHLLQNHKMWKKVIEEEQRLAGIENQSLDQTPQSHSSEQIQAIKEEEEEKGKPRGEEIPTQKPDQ

Compound	IC50 ([1]; read-out: pIC50 (converted)) [µM]	Emax [1] [%]	IC50 [2, 4] [nM]	Emax ([2]; human recombinant PDE2A) [%]	Emax [2] [%]	IC50 [2, 5] [nM]	Emax [3, 6] [%]	IC50 [3, 7] [nM]	Emax [3, 8] [%]	IC50 [3, 9] [nM]	IC50 ([2]; hPDE2A pIC50) [nM]	IC50 ([2]; hPDE2A pIC50, human recombinant PDE2A, 10 μM cGMP substrate) [nM]	IC50 [1] [µM]	IC50 ([3]; hPDE10A2 or rPDE10A2 pIC50, human clone by default (no (r) mark)) [nM]
C[C@@H]1CCN(C(=O)c2cn(C)cn2)C[C@H]1c1cc(C(F)F)nc2ncnn12 [Compound 58]	> 10	18	24.5	99	99	24.5	69	4470						
Cc1cc2cc(C(=O)N3[C@H]4CC[C@H](c5cc(C(F)F)nc6ncnn56)[C@@H]3CC4)ccc2n1C [Compound 373]	0.537	97			100	2.69			99	316				
C[C@@H]1CCN(C(=O)c2cnc(Br)s2)C[C@H]1c1cc(C(F)F)nc2ncnn12 [Compound 182]	> 10	44	25.1	100	100	25.1	95	417						
Cc1cc(C(=O)N2[C@H]3CC[C@@H]2[C@H](c2cc(C(F)F)nc4ncnn24)CC3)cc(C(F)(F)F)n1 [Compound 285]	> 10	21			65	6920			37	> 10000				
C[C@@H]1CCN(C(=O)c2ncccc2C(F)(F)F)C[C@H]1c1cc(C(F)F)nc2ncnn12 [Compound 253]	> 10	17			95	457	39	> 10000	39	> 10000				
Cc1cc([C@H]2CN(C(=O)c3cc(C)c(Cl)c(C)c3)CC[C@@H]2C)n2ncnc2n1 [Compound 218]	> 10	51			100		85	2240	85	2240	204	204		
O=C(c1ccc(Cl)s1)N1[C@H]2CC[C@H](c3cc(C(F)F)nc4ncnn34)[C@@H]1CC2 [Compound 351]	6.31	69			99	51.3			83	2140				
O=C(c1nc2ccccc2o1)N1[C@H]2CC[C@H](c3cc(C(F)F)nc4ncnn34)[C@@H]1CC2 [Compound 304]	9.12	48			100	39.8			45	> 10000				
C[C@@H]1CCN(C(=O)c2cc3ccccc3n2C)C[C@H]1c1cc(C(F)F)nc2ncnn12 [Compound 114]	0.0891	98	1.05	100	100	1.05	101	45.7						
Cc1ccc(C(=O)N2CC[C@@H](C)[C@H](c3cc(C(F)F)nc4ncnn34)C2)c(C)n1 [Compound 143]	7.94	58	33.1	97	97	33.1	77	2400						
Cc1nc2cc(C(=O)N3[C@H]4CC[C@H](c5cc(C(F)F)nc6ncnn56)[C@@H]3CC4)ccc2o1 [Compound 306]		71			100				74		44.7		4.47	3630
C[C@@H]1CCN(C(=O)c2ccnnc2)C[C@H]1c1cc(C(F)F)nc2ncnn12 [Compound 248]	> 10	2			95	347	49	10500	49	10500				
COc1c(F)cc(C(=O)N2[C@H]3CC[C@H](c4cc(C(F)F)nc5ncnn45)[C@@H]2CC3)cc1F [Compound 359]	3.98	71			99	12			86	2140				
C[C@@H]1CCN(C(=O)c2ccc3nc(N)sc3c2)C[C@H]1c1cc(C(F)F)nc2ncnn12 [Compound 88]	0.389	97	0.209	101	101	0.209	99	3.98						
C[C@@H]1CCN(C(=O)c2cccc3ncoc23)C[C@H]1c1cc(C(F)F)nc2ncnn12 [Compound 176]	8.71	56	9.12	100	100	9.12	88	891						
Cc1cc(C(=O)N2CC[C@@H](C)[C@H](c3cc(C(F)F)nc4ncnn34)C2)cc(CO)n1 [Compound 361]	> 10	37			100	2.75			92	355				
C[C@@H]1CCN(C(=O)c2ccc3cnccc3c2)C[C@H]1c1cc(C(F)F)nc2ncnn12 [Compound 326]	0.257	97			100	2.14			99	60.3				
Cc1nc(C(F)(F)F)ccc1C(=O)N1CC[C@@H](C)[C@H](c2cc(C(F)F)nc3ncnn23)C1 [Compound 263]	4.9	65			99	129	64	5130	64	5130				
C[C@@H]1CCN(C(=O)c2ccc3ncoc3c2)C[C@H]1c1cc(C(F)F)nc2ncnn12 [Compound 104]	0.513	92	0.813	100	100	0.813	98	74.1						
Cc1cc([C@@H]2CC[C@@H]3CC[C@H]2N3C(=O)c2ccc3ncsc3c2)n2ncnc2n1 [Compound 230]	> 10	40	1020	93	93	1020	65	5370	65	5370				
C[C@@H]1CCN(C(=O)c2ccc(Cl)s2)C[C@H]1c1cc(C(F)F)nc2ncnn12 [Compound 180]	5.13	66	5.01	100	100	5.01	97	174						
C[C@@H]1CCN(C(=O)c2ccc(Br)cn2)C[C@H]1c1cc(C(F)F)nc2ncnn12 [Compound 153]	3.09	76	43.7	100	100	43.7	89	1070						

From patent US10947242B2, “[1,2,4]triazolo[1,5and#8208;A]pyrimidine compounds as PDE2 inhibitors” (Janssen Pharmaceutica NV, priority 2016, dated 2021)
